# Test results from ChEMBL document CHEMBL3875146, “Mycobacterium Tuberculosis (MTB) GyrB inhibitors: An attractive approach for developing novel drugs against TB” (Eur J Med Chem, 2016).
# Experiments:
# [1] = Cytotoxicity against mouse RAW264.7 cells assessed as inhibition of cell viability at 100 uM measured after 72 hrs by MTT assay relative to control; type: toxicity; conditions: read-out: INH
# [2] = target: DNA gyrase subunit A/DNA gyrase subunit B (Mycobacterium tuberculosis (strain ATCC 25618 / H37Rv), UniProt P9WG45+P9WG47); assay: Inhibition of Mycobacterium tuberculosis DNA gyrase assessed as inhibition of DNA supercoiling activity using relaxed pBR322 as substrate incubated for 30 mins by ethidium bromide staining based agarose gel electrophoresis
# [3] = Cytotoxicity against mouse RAW264.7 cells assessed as inhibition of cell viability at 100 uM measured after 48 hrs by MTT assay relative to control; type: toxicity; conditions: read-out: INH
# [4] = tested on: Mycobacterium tuberculosis; assay: Antimycobacterial activity against Mycobacterium tuberculosis incubated for 7 days by alamar blue assay; type: functional; conditions: 168 h
# DNA gyrase subunit B = DNA gyrase subunit B (Mycobacterium smegmatis, UniProt P0C559); assay: Inhibition of Mycobacterium smegmatis DNA gyrase B expressed in BL21(DE3)pLysS cells assessed as inhibition of […] activity in presence of ATP measured after 30 mins by malachite green dye based assay; type: cell-based, Mycolicibacterium smegmatis
# DNA gyrase subunit B, sequence (P0C559 whole entry): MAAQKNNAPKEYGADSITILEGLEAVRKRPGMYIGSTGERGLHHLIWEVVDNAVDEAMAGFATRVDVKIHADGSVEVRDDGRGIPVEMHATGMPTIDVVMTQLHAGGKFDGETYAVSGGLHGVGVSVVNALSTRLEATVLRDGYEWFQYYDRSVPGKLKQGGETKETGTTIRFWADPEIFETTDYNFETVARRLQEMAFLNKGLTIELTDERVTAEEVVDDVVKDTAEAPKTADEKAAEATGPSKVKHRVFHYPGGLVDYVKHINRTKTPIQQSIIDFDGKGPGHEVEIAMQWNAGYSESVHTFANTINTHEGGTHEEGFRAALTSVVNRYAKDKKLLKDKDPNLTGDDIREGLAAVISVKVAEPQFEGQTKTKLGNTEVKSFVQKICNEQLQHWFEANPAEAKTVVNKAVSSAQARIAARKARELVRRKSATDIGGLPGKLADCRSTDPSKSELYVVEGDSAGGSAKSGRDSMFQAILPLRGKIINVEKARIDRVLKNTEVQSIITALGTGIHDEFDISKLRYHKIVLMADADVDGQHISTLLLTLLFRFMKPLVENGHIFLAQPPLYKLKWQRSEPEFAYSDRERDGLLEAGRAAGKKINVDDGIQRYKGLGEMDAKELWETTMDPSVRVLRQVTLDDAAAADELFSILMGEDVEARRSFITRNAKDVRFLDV
# DNA gyrase subunit A/DNA gyrase subunit B, sequence (P9WG45 whole entry): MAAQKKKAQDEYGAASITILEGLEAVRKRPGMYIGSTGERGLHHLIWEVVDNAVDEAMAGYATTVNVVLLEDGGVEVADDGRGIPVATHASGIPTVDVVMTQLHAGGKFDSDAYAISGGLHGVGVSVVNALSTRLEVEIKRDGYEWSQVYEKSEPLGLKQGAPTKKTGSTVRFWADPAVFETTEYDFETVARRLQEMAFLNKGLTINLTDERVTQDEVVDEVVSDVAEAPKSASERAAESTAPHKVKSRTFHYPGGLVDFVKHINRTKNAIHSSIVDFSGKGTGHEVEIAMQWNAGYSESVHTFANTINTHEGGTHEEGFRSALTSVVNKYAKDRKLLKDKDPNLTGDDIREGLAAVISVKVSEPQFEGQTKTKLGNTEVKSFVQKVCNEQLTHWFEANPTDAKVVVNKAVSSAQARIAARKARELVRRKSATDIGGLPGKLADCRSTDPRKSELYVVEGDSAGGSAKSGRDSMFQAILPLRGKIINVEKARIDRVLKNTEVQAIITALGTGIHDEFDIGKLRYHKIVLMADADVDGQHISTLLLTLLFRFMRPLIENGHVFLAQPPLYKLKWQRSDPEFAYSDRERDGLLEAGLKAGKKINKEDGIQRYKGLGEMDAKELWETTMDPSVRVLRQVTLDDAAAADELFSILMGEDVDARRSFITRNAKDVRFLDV
# DNA gyrase subunit A/DNA gyrase subunit B, sequence (P9WG47 whole entry): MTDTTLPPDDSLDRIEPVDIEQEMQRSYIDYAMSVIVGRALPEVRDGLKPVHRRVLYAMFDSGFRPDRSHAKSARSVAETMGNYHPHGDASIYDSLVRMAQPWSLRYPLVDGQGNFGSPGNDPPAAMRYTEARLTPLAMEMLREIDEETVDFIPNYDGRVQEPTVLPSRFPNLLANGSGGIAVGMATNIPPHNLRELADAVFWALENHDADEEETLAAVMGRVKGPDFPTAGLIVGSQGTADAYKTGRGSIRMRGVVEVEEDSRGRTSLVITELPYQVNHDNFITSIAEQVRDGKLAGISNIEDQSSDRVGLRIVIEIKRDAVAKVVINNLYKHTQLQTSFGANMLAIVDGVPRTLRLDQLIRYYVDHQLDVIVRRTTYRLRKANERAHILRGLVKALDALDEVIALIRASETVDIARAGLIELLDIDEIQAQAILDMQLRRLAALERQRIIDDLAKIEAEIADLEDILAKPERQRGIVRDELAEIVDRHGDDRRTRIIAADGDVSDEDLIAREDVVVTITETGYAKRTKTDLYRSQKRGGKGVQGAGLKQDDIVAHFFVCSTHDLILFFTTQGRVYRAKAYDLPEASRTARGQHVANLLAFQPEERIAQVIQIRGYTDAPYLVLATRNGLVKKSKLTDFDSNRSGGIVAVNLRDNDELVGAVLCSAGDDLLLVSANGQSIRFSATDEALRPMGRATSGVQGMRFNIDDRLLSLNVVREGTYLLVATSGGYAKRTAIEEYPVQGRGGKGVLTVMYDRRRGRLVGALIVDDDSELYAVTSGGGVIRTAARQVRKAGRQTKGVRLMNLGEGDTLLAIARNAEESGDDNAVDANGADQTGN
SMILES,"cytotoxicity at 72 h, 100 µM [1]",IC50 [2],"cytotoxicity at 48 h, 100 µM [3]",MIC [4],IC50 (DNA gyrase subunit B)
O=C1C(=O)N(CCN2CCN(NCc3ccc([N+](=O)[O-])o3)CC2)c2ccc(F)cc21,37.8%,> 50 µM,,,
O=c1nc(N2CCN(Cc3ccc(Cl)cc3)CC2)sc2ccc(C(F)(F)F)cc12,,3.86 µM,8.45%,6.31 µM,
Cc1ccc2c(c1)C(=O)C(=O)N2CCN1CCN(NCc2ccccc2OCc2ccccc2)CC1,34.6%,10 µM,,,28.3 µM
COc1ccc2c(c1)C(=O)C(=O)N2CCN1CCN(NCc2ccc([N+](=O)[O-])o2)CC1,31.6%,> 50 µM,,,
O=C1C(=O)N(CCN2CCN(NCc3ccccc3)CC2)c2ccc(F)cc21,29.3%,> 50 µM,,,
Cc1ccc(CN2CCN(c3nc(=O)c4cc([N+](=O)[O-])ccc4s3)CC2)cc1,,8.93 µM,26.5%,15.8 µM,
O=C(Nc1ccccc1)N1CCN(c2nc(=O)c3cc([N+](=O)[O-])ccc3s2)CC1,,16.8 µM,,30.4 µM,
Cc1ccc(NC(=S)N2CCN(c3nc(=O)c4cc(Cl)ccc4s3)CC2)cc1,,11.6 µM,2.48%,14.5 µM,
O=c1nc(N2CCN(Cc3ccc([N+](=O)[O-])cc3)CC2)sc2ccc(C(F)(F)F)cc12,,4.55 µM,14.6%,5.19 µM,
O=c1nc(N2CCN(Cc3ccc(Cl)cc3)CC2)sc2ccc(Cl)cc12,,12.1 µM,5.36%,15.4 µM,
O=c1nc(N2CCN(C(=S)Nc3ccc(Cl)cc3)CC2)sc2ccc(Cl)cc12,,6.86 µM,25.6%,6.92 µM,
O=C1C(=O)N(CCN2CCN(NCc3cccc(Cl)c3Cl)CC2)c2ccc(F)cc21,31.2%,> 50 µM,,,
O=C(Nc1ccc([N+](=O)[O-])cc1)N1CCN(c2nc(=O)c3cc(C(F)(F)F)ccc3s2)CC1,,26.5 µM,,52.1 µM,
O=C1C(=O)N(CCN2CCN(NCc3ccccc3F)CC2)c2ccc(Cl)cc21,17.6%,> 50 µM,,,
O=c1nc(N2CCN(C(=S)Nc3ccc([N+](=O)[O-])cc3)CC2)sc2ccc(Cl)cc12,,6.23 µM,1.45%,13.5 µM,
COc1ccccc1CNN1CCN(CCN2C(=O)C(=O)c3ccccc32)CC1,21.3%,> 50 µM,,,
O=C(Nc1ccc(Cl)cc1)N1CCN(c2nc(=O)c3cc([N+](=O)[O-])ccc3s2)CC1,,23.7 µM,,28 µM,
O=c1nc(N2CCN(C(=S)Nc3ccc([N+](=O)[O-])cc3)CC2)sc2ccc(C(F)(F)F)cc12,,2.16 µM,5.48%,5.04 µM,
O=C(Nc1ccccc1)N1CCN(c2nc(=O)c3cc(C(F)(F)F)ccc3s2)CC1,,11 µM,,19.2 µM,
Cc1ccc2c(c1)C(=O)C(=O)N2CCN1CCN(NCc2ccccc2C(F)(F)F)CC1,13.6%,> 50 µM,,,
O=C(Nc1ccc(Cl)cc1)N1CCN(c2nc(=O)c3cc(Cl)ccc3s2)CC1,,10.5 µM,2.56%,17.9 µM,
O=c1nc(N2CCN(Cc3ccccc3)CC2)sc2ccc([N+](=O)[O-])cc12,,3.21 µM,5.41%,4.08 µM,
O=c1nc(N2CCN(Cc3ccccc3)CC2)sc2ccc(Cl)cc12,,17.6 µM,,33.6 µM,
O=c1nc(N2CCN(C(=S)Nc3ccccc3)CC2)sc2ccc(Cl)cc12,,10.9 µM,2.35%,11.2 µM,
Cc1ccc(CN2CCN(c3nc(=O)c4cc(C(F)(F)F)ccc4s3)CC2)cc1,,11.6 µM,18.6%,16.7 µM,
Cc1ccc(NC(=O)N2CCN(c3nc(=O)c4cc(Cl)ccc4s3)CC2)cc1,,2.62 µM,5.14%,6.02 µM,

SMILES,"cytotoxicity at 72 h, 100 µM [1]",IC50 [2],"cytotoxicity at 48 h, 100 µM [3]",MIC [4],IC50 (DNA gyrase subunit B)
O=C(Nc1ccc([N+](=O)[O-])cc1)N1CCN(c2nc(=O)c3cc(Cl)ccc3s2)CC1,,4.61 µM,3.56%,5.24 µM,
Cc1ccc(NC(=O)N2CCN(c3nc(=O)c4cc([N+](=O)[O-])ccc4s3)CC2)cc1,,9.62 µM,16.2%,14.7 µM,
CO[C@@H]1[C@@H](OC(N)=O)[C@@H](O)[C@H](Oc2ccc3c(O)c(NC(=O)c4ccc(O)c(CC=C(C)C)c4)c(=O)oc3c2C)OC1(C)C [NOVOBIOCIN],,,7.56%,> 200 µM,
O=c1nc(N2CCN(C(=S)Nc3ccccc3)CC2)sc2ccc(C(F)(F)F)cc12,,0.83 µM,6.48%,4.62 µM,
O=c1nc(N2CCN(C(=S)Nc3ccc(Cl)cc3)CC2)sc2ccc([N+](=O)[O-])cc12,,0.51 µM,1.81%,4.41 µM,
O=C1C(=O)N(CCN2CCN(NCc3ccccc3)CC2)c2ccccc21,7.6%,> 50 µM,,,
COc1ccccc1CNN1CCN(CCN2C(=O)C(=O)c3cc(F)ccc32)CC1,19.1%,> 50 µM,,,
O=C1C(=O)N(CCN2CCN(NCc3ccccc3)CC2)c2ccc(Cl)cc21,22.3%,> 50 µM,,,
O=C(Nc1ccccc1)N1CCN(c2nc(=O)c3cc(Cl)ccc3s2)CC1,,17.5 µM,16.5%,15.6 µM,
O=c1nc(N2CCN(Cc3ccccc3)CC2)sc2ccc(C(F)(F)F)cc12,,11.5 µM,,15.4 µM,
O=c1nc(N2CCN(Cc3ccc([N+](=O)[O-])cc3)CC2)sc2ccc([N+](=O)[O-])cc12,,4.21 µM,21.4%,7.31 µM,
Cc1ccc(NC(=S)N2CCN(c3nc(=O)c4cc(C(F)(F)F)ccc4s3)CC2)cc1,,4.51 µM,16.4%,9.54 µM,
Cc1ccc(CN2CCN(c3nc(=O)c4cc(Cl)ccc4s3)CC2)cc1,,21.5 µM,2.36%,24.2 µM,
COc1ccc2c(c1)C(=O)C(=O)N2CCN1CCN(NCc2ccccc2F)CC1,16.3%,> 50 µM,,,
O=c1nc(N2CCN(Cc3ccc([N+](=O)[O-])cc3)CC2)sc2ccc(Cl)cc12,,7.33 µM,5.48%,15 µM,
Cc1ccc2c(c1)C(=O)C(=O)N2CCN1CCN(NCc2ccccc2)CC1,19.7%,> 50 µM,,,
Cc1ccc2c(c1)C(=O)C(=O)N2CCN1CCN(NCc2ccc([N+](=O)[O-])o2)CC1,27.8%,> 50 µM,,,
Cc1ccc(NC(=O)N2CCN(c3nc(=O)c4cc(C(F)(F)F)ccc4s3)CC2)cc1,,5.26 µM,7.56%,11.5 µM,
O=C(Nc1ccc([N+](=O)[O-])cc1)N1CCN(c2nc(=O)c3cc([N+](=O)[O-])ccc3s2)CC1,,9.11 µM,15.2%,13.7 µM,
O=c1nc(N2CCN(C(=S)Nc3ccc(Cl)cc3)CC2)sc2ccc(C(F)(F)F)cc12,,4.23 µM,3.15%,8.59 µM,
O=c1nc(N2CCN(Cc3ccc(Cl)cc3)CC2)sc2ccc([N+](=O)[O-])cc12,,3.68 µM,1.56%,5.99 µM,
O=C(Nc1ccc(Cl)cc1)N1CCN(c2nc(=O)c3cc(C(F)(F)F)ccc3s2)CC1,,10.5 µM,10.2%,13.3 µM,
Cc1ccc(NC(=S)N2CCN(c3nc(=O)c4cc([N+](=O)[O-])ccc4s3)CC2)cc1,,0.82 µM,4.22%,2.83 µM,
O=c1nc(N2CCN(C(=S)Nc3ccccc3)CC2)sc2ccc([N+](=O)[O-])cc12,,0.77 µM,3.25%,1.82 µM,
O=c1nc(N2CCN(C(=S)Nc3ccc([N+](=O)[O-])cc3)CC2)sc2ccc([N+](=O)[O-])cc12,,2.59 µM,2.21%,5.29 µM,
